Test results: patent US8968771B2, “Articles and methods for applying antimicrobial protection” (Coeus Technology, Inc., priority 2011, dated 2015)

Assay: Polymerization / stability of the molecule in solution with water
Assay type: physicochemical
Conditions: industrially-available preparation placed in solution with water
From the text: Solutions of industrially-available preparations (e.g. 3-(trihydroxysilyl) propyldimethyloctadecyl ammonium chloride) were placed in solution with water. It was discovered that at higher concentrations (e.g. at or above about 3 to 4 percent weight/volume) the molecules polymerize to an unsatisfactory degree, making a stable solution either impossible or heavier and unsuitable for saturating a wipe-type substrate or spraying onto a surface or substrate. […] These solutions remain stable in impregnated or saturated substrates (e.g. wipes in a liquid-tight containers) or in a bottle or other container for the solution. […] When the substrate is used to wipe, the solution with the solute remains on the wiped surface in a layer. As the solvent is dried, by evaporation or otherwise, the solute remains in a dry physical layer that remains to physically combat microbes.

CCCCCCCCCCCCCCCCCC[N+](C)(C)CCC[Si](O)(O)O.[Cl-] [3-(trihydroxysilyl) propyldimethyloctadecyl ammonium chloride]
Concentration in water at which the molecules polymerize to an unsatisfactory degree: 3 to 4 percent weight/volume
